Experimental data from the supplement of paper PMC10307832.

Assays:
Test in all cases: relative viability (nuclei count vs DMSO), 5 days (fraction); higher = more cells survive
AT9283 + Foretinib = compound: O=C(Nc1c[nH]nc1-c1nc2ccc(CN3CCOCC3)cc2[nH]1)NC1CC1 [AT9283] + COc1cc2c(Oc3ccc(NC(=O)C4(C(=O)Nc5ccc(F)cc5)CC4)cc3F)ccnc2cc1OCCCN1CCOCC1 [Foretinib] (partner 0.25 µM)
Summary of the method: (§1)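 For relative viability, nuclei counts in treated wells were divided by those in vehicle wells. Lung cancer cell lines had been pin-tool dosed in 1536-well plates the day after seeding and cultured for 5 days, then fixed and stained in one step (final 0.05% Triton X-100, 1% formaldehyde, 1 ug/ml Hoechst) and imaged at 4×. Doses were one drug alone or a fixed anchor-drug dose plus five library-drug doses (not always all listed) in √10 steps, and values are duplicate-plate medians.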

Erlotinib + Crizotinib = compound: C#Cc1cccc(Nc2ncnc3cc(OCCOC)c(OCCOC)cc23)c1 [Erlotinib] + C[C@@H](Oc1cc(-c2cnn(C3CCNCC3)c2)cnc1N)c1c(Cl)ccc(F)c1Cl [Crizotinib] (partner 1 µM)
Summary of the method: as §1

Erlotinib + Decitabine = compound: C#Cc1cccc(Nc2ncnc3cc(OCCOC)c(OCCOC)cc23)c1 [Erlotinib] + Nc1ncn([C@H]2C[C@H](O)[C@@H](CO)O2)c(=O)n1 [Decitabine] (partner 2 µM)
Summary of the method: as §1

Erlotinib + Alpelisib = compound: C#Cc1cccc(Nc2ncnc3cc(OCCOC)c(OCCOC)cc23)c1 [Erlotinib] + Cc1nc(NC(=O)N2CCC[C@H]2C(N)=O)sc1-c1ccnc(C(C)(C)C(F)(F)F)c1 [Alpelisib] (partner 2 µM)
Summary of the method: as §1

AT9283 + Trametinib = compound: O=C(Nc1c[nH]nc1-c1nc2ccc(CN3CCOCC3)cc2[nH]1)NC1CC1 [AT9283] + CC(=O)Nc1cccc(-n2c(=O)n(C3CC3)c(=O)c3c(Nc4ccc(I)cc4F)n(C)c(=O)c(C)c32)c1 [Trametinib] (partner 0.02 µM)
Summary of the method: as §1

Cell Line	relative viability (AT9283 + Foretinib; first compound 0.003 µM)	relative viability (AT9283 + Foretinib; first compound 0.03 µM)	relative viability (AT9283 + Foretinib; first compound 0.09487 µM)	relative viability (AT9283 + Foretinib; first compound 0.3 µM)	relative viability (Erlotinib + Crizotinib; first compound 0.02 µM)	relative viability (Erlotinib + Crizotinib; first compound 0.2 µM)	relative viability (Erlotinib + Crizotinib; first compound 0.6325 µM)	relative viability (Erlotinib + Crizotinib; first compound 2 µM)	relative viability (Erlotinib + Decitabine; first compound 0.02 µM)	relative viability (Erlotinib + Decitabine; first compound 0.2 µM)	relative viability (Erlotinib + Decitabine; first compound 0.6325 µM)	relative viability (Erlotinib + Decitabine; first compound 2 µM)	relative viability (Erlotinib + Alpelisib; first compound 0.02 µM)	relative viability (Erlotinib + Alpelisib; first compound 0.2 µM)	relative viability (Erlotinib + Alpelisib; first compound 0.6325 µM)	relative viability (Erlotinib + Alpelisib; first compound 2 µM)	relative viability (AT9283 + Trametinib; first compound 0.003 µM)	relative viability (AT9283 + Trametinib; first compound 0.03 µM)	relative viability (AT9283 + Trametinib; first compound 0.09487 µM)	relative viability (AT9283 + Trametinib; first compound 0.3 µM)
NCI-H460	0.983	0.907	0.184	0.0594	1.08	0.763	1.26	0.74	0.508	0.433	0.505	0.47	0.585	0.415	0.492	0.399	0.143	0.215	0.0758	0.0307
HCC-44	–	–	–	–	0.797	0.895	0.843	0.798	1	0.972	–	1	0.821	0.698	0.909	0.707	0.923	1.07	0.635	0.938
NCI-H2087	1.03	0.388	0.195	0.132	0.882	1.06	0.871	0.849	0.286	0.238	0.282	0.208	1.3	–	1.09	1.04	0.176	0.096	0.124	0.107
UMC-11	0.996	0.181	0.175	0.184	0.644	0.62	0.84	0.585	0.652	0.597	0.636	0.567	0.986	1.06	1.21	1.05	0.679	0.134	0.126	0.164
NCI-H1355	0.871	0.952	0.582	0.272	1.1	0.999	0.944	0.789	0.394	0.315	0.322	0.341	–	0.742	0.685	0.518	0.446	0.427	0.354	0.179
H3255	0.924	0.794	0.734	0.183	0.999	0.509	0.305	0.136	–	0.433	0.244	0.168	0.674	0.34	0.16	0.13	0.65	0.614	0.459	0.284
NCI-H2085	1.1	0.736	0.51	0.338	0.794	0.835	0.739	0.57	0.573	0.585	0.531	0.496	0.935	0.81	0.673	0.645	0.532	0.453	0.395	0.318
IA-LM	1.21	0.391	0.105	0.0774	0.808	1	0.93	0.85	–	–	–	–	0.984	–	0.7	0.789	–	–	–	–
LCLC-103H	0.737	0.732	0.258	0.219	1.04	1.09	1.16	1.04	0.765	0.688	0.716	0.639	0.882	0.953	0.994	0.91	0.661	0.716	0.441	0.4
NCI-H2405	1.05	0.82	0.352	0.312	0.957	0.838	0.958	0.717	–	0.706	0.647	0.629	0.853	0.772	0.822	0.698	0.737	0.491	0.296	0.185
NCI-H1666	1.01	0.725	0.534	0.496	1.02	0.856	0.66	0.428	–	–	0.557	0.458	0.901	0.631	0.504	0.348	0.852	0.721	0.637	0.474
COR-L 105	0.847	0.673	0.249	0.361	–	0.656	0.39	0.198	0.729	0.463	0.41	0.351	1.09	0.659	0.477	0.243	0.399	0.395	0.328	0.297
ABC-1	1.02	0.15	0.178	0.153	1.07	1.14	1.44	1.18	–	0.962	0.923	1.12	1.09	1.2	1.01	0.92	–	–	–	–
EPLC-272H	0.622	0.217	0.12	0.123	0.911	0.957	0.884	0.596	0.362	0.332	0.324	0.316	1.01	0.979	0.818	0.679	0.285	0.287	0.161	0.152
NCI-H1792	–	–	–	–	1	0.931	1.06	0.801	0.634	0.482	0.505	0.477	–	0.595	0.77	0.49	0.315	0.376	0.509	0.258
NCI-H2170	1.06	0.897	0.261	0.21	1.17	1.06	1.1	0.569	0.542	0.492	0.505	0.419	0.895	0.745	0.578	0.308	0.958	0.747	0.268	0.159
NCI-H2347	0.844	0.869	0.672	0.446	0.678	0.595	0.723	0.646	0.633	0.642	0.589	0.576	1.33	0.966	1.13	0.893	0.292	0.269	0.275	0.262

Cell Line	relative viability (AT9283 + Foretinib; first compound 0.003 µM)	relative viability (AT9283 + Foretinib; first compound 0.03 µM)	relative viability (AT9283 + Foretinib; first compound 0.09487 µM)	relative viability (AT9283 + Foretinib; first compound 0.3 µM)	relative viability (Erlotinib + Crizotinib; first compound 0.02 µM)	relative viability (Erlotinib + Crizotinib; first compound 0.2 µM)	relative viability (Erlotinib + Crizotinib; first compound 0.6325 µM)	relative viability (Erlotinib + Crizotinib; first compound 2 µM)	relative viability (Erlotinib + Decitabine; first compound 0.02 µM)	relative viability (Erlotinib + Decitabine; first compound 0.2 µM)	relative viability (Erlotinib + Decitabine; first compound 0.6325 µM)	relative viability (Erlotinib + Decitabine; first compound 2 µM)	relative viability (Erlotinib + Alpelisib; first compound 0.02 µM)	relative viability (Erlotinib + Alpelisib; first compound 0.2 µM)	relative viability (Erlotinib + Alpelisib; first compound 0.6325 µM)	relative viability (Erlotinib + Alpelisib; first compound 2 µM)	relative viability (AT9283 + Trametinib; first compound 0.003 µM)	relative viability (AT9283 + Trametinib; first compound 0.03 µM)	relative viability (AT9283 + Trametinib; first compound 0.09487 µM)	relative viability (AT9283 + Trametinib; first compound 0.3 µM)
NCI-H1395	0.729	0.88	0.465	0.397	–	–	–	–	0.816	0.726	0.807	0.678	1.34	1.08	1.08	1.07	1.07	0.865	0.444	0.341
NCI-H522	–	–	–	–	–	–	–	–	0.661	0.751	0.659	0.589	–	–	–	–	0.736	0.811	0.599	0.415
Calu-6	0.728	0.203	0.214	0.24	0.931	0.719	0.853	0.714	–	–	–	–	0.983	1.06	1.04	0.909	–	–	–	–
EBC-1	0.107	0.0785	0.0877	0.075	0.206	0.189	0.169	0.164	–	–	–	–	0.792	0.772	0.757	0.792	–	–	–	–
ChaGo-K-1	0.918	0.521	0.319	0.268	1.24	1.16	1.2	1.1	0.528	0.51	0.496	0.518	–	–	–	–	0.78	0.844	0.494	0.205
NCI-H1623	0.91	0.837	0.612	0.487	–	–	–	–	–	–	–	–	–	–	–	–	–	–	–	–
SW 900	1.1	0.898	0.866	0.366	–	–	–	–	0.392	0.526	0.429	0.374	–	–	–	–	0.66	0.607	0.345	0.27
A549	0.87	0.118	0.131	0.0419	0.799	0.796	0.792	0.551	0.263	0.294	0.266	0.262	0.709	0.68	0.728	0.595	–	–	–	–
NCI-H1563	0.906	0.765	0.708	0.633	0.85	0.845	0.802	0.804	–	–	–	–	0.931	–	0.952	0.799	–	–	–	–
NCI-H1650	1.2	0.985	0.46	0.327	0.85	0.721	0.924	0.643	0.331	0.365	0.509	0.421	–	–	–	–	0.604	0.545	0.399	0.179
CAL-12T	1.1	0.773	0.414	0.283	0.964	0.636	0.356	0.249	–	–	–	–	1.16	0.859	0.56	0.371	0.421	0.399	0.211	0.152
NCI-H2342	1.2	1.01	0.547	0.367	–	–	–	–	0.78	–	0.701	0.683	–	–	–	–	0.841	0.808	0.707	0.442
NCI-H1703	0.335	0.254	0.273	0.228	0.592	–	–	0.569	–	–	–	–	0.367	0.321	0.352	0.296	–	–	–	–
NCI-H2228	0.968	0.613	0.26	0.104	0.516	0.476	0.379	0.32	–	–	–	–	0.906	0.858	0.716	0.642	0.422	0.518	0.239	0.207
NCI-H1299	1.13	0.541	0.415	0.373	0.989	–	0.988	0.965	–	–	–	–	1.07	1.03	1.1	1.03	–	–	–	–
NCI-H1648	–	–	–	–	–	–	–	–	0.433	0.512	0.491	0.39	–	–	–	–	0.404	0.563	0.333	0.336
NCI-H1793	0.729	0.484	0.256	0.219	–	–	–	–	0.492	0.443	0.328	0.343	0.747	0.549	0.516	0.579	0.389	0.342	0.292	0.259
